Experimental findings from patent US7737112B2, “Composition for enzyme inhibition” (Onyx Therapeutics, Inc., priority 2004, dated 2010) are described below.

Holding throughout (assay type): physicochemical
Series [1] can be described thus: room temperature stability of reconstituted peptide (b)/HPBCD drug product. The following applies: 100 μg/mL peptide (b)/HPBCD solid reconstituted in aqueous 0.9% (w/v) NaCl, sterile filtered. The protocol:
The desired quantity of peptide (b) was weighed and dissolved in absolute ethanol at a concentration of 1 mg/mL. For each 1 mg of peptide (b) to be formulated, 1.3 g HPBCD was dissolved in absolute ethanol at a concentration of 10 mg/mL. This ethanol/HPBCD solution was then combined with the ethanol/peptide (b) solution, stirred 5 minutes at room temperature and then evaporated under reduced pressure (rotovapped) to yield a white solid. This solid was placed under high vacuum (ca. 1 mTorr) for 24 hrs, pulverized and then placed under high vacuum (ca. 1 mTorr) for another 4 hrs to yield dry solid. The final formulation was prepared by dissolving this solid drug product to a final concentration of 100 μg peptide (b)/mL solid drug product in ice cold USP grade aqueous 0.9% (w/v) NaCl followed by sterile filtration. Room temperature stability of the reconstituted drug product was ca. 12 hrs.

Series [2] is described as follows: solubility of peptide epoxy ketones in cyclodextrin formulations. As to the method:
100 μg/mL peptide (b) was formulated in an aqueous solution containing 130 mg/mL hydroxypropyl beta cyclodextrin (HPBCD) and ca. 0.9% (w/v) NaCl.
2 mg/mL peptide (a) was formulated in an aqueous solution containing 10% (w/v) SBECD and 10 mM citric acid adjusted to pH 3.5 with 0.1 M aqueous sodium hydroxide.
(§1) Appropriate masses of SBECD and citric acid were added to a volume of WFI corresponding to approximately 75% that of the final formulation. This mixture was then stirred at room temperature until complete dissolution of the SBECD and citric acid was effected. An appropriate mass of peptide (a) was then added and the resulting mixture stirred at room temperature until the added peptide (a) was dissolved. A pH electrode was then immersed in the solution and, with rapid stirring, the pH was adjusted to 3.5 by slow addition of 0.1 M sodium hydroxide in WFI; slow addition of the sodium hydroxide solution with adequate stirring was necessary to prevent precipitation of peptide (a). With rapid stirring, the resulting solution was then diluted with WFI to a final peptide (a) concentration of 2.0 mg/mL. This solution was then sterile filtered to yield the final formulation.
Several other final pH values were used for the peptide (a)/SBECD formulations.

Series [3] is described as follows: reconstitution of lyophilized (3x) peptide (a)/SBECD formulation. As to the method: 6 mg/mL peptide (a) was formulated in an aqueous solution containing 30% (w/v) SBECD and 30 mM citric acid adjusted to pH 3.5 with 0.5 M aqueous sodium hydroxide.
as §1, with “70%” for “approximately 75%”, “0.5” for “0.1”, “6.0” for “2.0”
The vials containing product were loaded onto the shelves and the temperature set for 5° C. for 2 hrs. […]
Reconstitution was effected by addition of 9.75 mL of WFI, USP to produce the desired fill volume within the vial of 10.5 mL. […] The pH measured was 3.5±0.1.

On to `CC(=O)N[C@@H](CCc1ccccc1)C(=O)N[C@@H](CC(C)C)C(=O)N[C@@H](Cc1ccccc1)C(=O)N[C@@H](CC(C)C)C(=O)[C@@]1(C)CO1` [peptide (b)], for which the “Room temperature stability of the reconstituted drug product” value in series [1] was “ca. 12 hrs”. In addition, the “state of the solution at room temperature” value in series [2] (100 μg/mL in aqueous 130 mg/mL HPBCD, ca. 0.9% (w/v) NaCl, could not be made by simply dissolving) was “supersaturated (metastable)”. Also, in series [2], the “solubility when formulated with a cyclodextrin” value is “significantly enhanced”.
On to `CC(C)C[C@H](NC(=O)[C@H](CCc1ccccc1)NC(=O)CN1CCOCC1)C(=O)N[C@@H](Cc1ccccc1)C(=O)N[C@@H](CC(C)C)C(=O)[C@@]1(C)CO1` [peptide (a)], for which the “solubility when formulated with a cyclodextrin” value in series [2] is “significantly enhanced”. In addition, the “time for dissolution on reconstitution” value in series [3] (lyophilized 6 mg/mL peptide (a), 30% (w/v) SBECD, 30 mM citric acid pH 3.5, 9.75 mL WFI added, fill volume 10.5 mL) is given as “less than 2 minutes”. Further, the “pH measured after reconstitution” value in series [3] (lyophilized peptide (a)/SBECD/citrate formulation reconstituted with WFI) stood at 3.5±0.1.
